Laboratory results from PMC4266338 (ACS Medicinal Chemistry Letters, 2014).

Experiments:
CHOP = experiment: CHO-CHOP-luciferase reporter assay; format: cell-based, Chinese hamster; conditions: for UPR CHOP AC50 ± SEM: CHO-CHOP-luciferase cells, averaged from n ≥ 4 experiments
HN6 = experiment: OSCC proliferation assay HN6; format: cell-based, human; conditions: HN6, 24 h
[1] = Hepatic microsome stability, mouse; format: in vitro ADME; conditions: 37°C, after 1 hr
HN30 = experiment: OSCC proliferation assay HN30; format: cell-based; conditions: Homo sapiens, 24 h, read-out: potency, dose–response proliferation assay
A253 = experiment: OSCC proliferation assay A253; format: cell-based, human; conditions: A253, 24 h
[2] = Chemical stability toward thiol nucleophiles; format: physicochemical; conditions: 10 μM in PBS pH 7.4, 1% DMSO, 8 h, room temperature
PAMPA permeability = format: in vitro ADME; conditions: donor pH 5.0, 6.2, and 7.4
[3] = system: human tumor cell line panel (NCI-60); experiment: NCI-60 human tumor cell line panel; format: cell-based; conditions: colon, melanoma, and renal cancer cell lines
[4] = Hepatic microsome stability, human; format: in vitro ADME; conditions: 37°C, after 1 hr
Aqueous solubility = format: physicochemical; conditions: through a biologically relevant pH range
[5] = system: Chop knockout murine embryonic fibroblast (MEF) cells; experiment: MEF proliferation assay, Chop knockout; format: cell-based, mouse; conditions: concentrations up to 20 μM, 24 h, Figure S1
[6] = Mouse pharmacokinetics IV and IP; conditions: male CD-1 mice, IV 2 mg/kg single dose
H460/T800 = experiment: OSCC proliferation assay H460/T800; format: cell-based, human; conditions: H460/T800, 24 h

O=C(Nc1ccc(S(=O)(=O)N2CCNCC2)cc1)c1ccc([N+](=O)[O-])o1 [Compound 8]
loss of activity (CHOP; CHOP activation relative to hit 3): ~14 fold

O=C(Nc1ccc(S(=O)(=O)N2CCOCC2)cc1)c1ccc(Br)o1 [Compound 29]
UPR CHOP AC50 ± SEM (CHOP): loss of activity

O=C(Nc1ccc(S(=O)(=O)N2CCC(O)CC2)cc1)c1ccc([N+](=O)[O-])o1 [Compound 9]
UPR CHOP AC50 ± SEM (CHOP): on par with activity observed with hit 3

O=C(Nc1ccc(S(=O)(=O)N2CCOCC2)cc1)c1ccco1 [Compound 27]
UPR CHOP AC50 ± SEM (CHOP): loss of activity

Cc1ccc(C(=O)Nc2ccc(S(=O)(=O)N3CCOCC3)cc2)o1 [Compound 28]
UPR CHOP AC50 ± SEM (CHOP): loss of activity

O=C(Nc1ccc(S(=O)(=O)N2CCC(Cl)CC2)cc1)c1ccc([N+](=O)[O-])o1 [Compound 12]
sensitivity, dose–response proliferation assay (HN6): more resistant
Hepatic Microsome Stability percent remaining [1]: almost completely metabolized
EC50 (HN30): 9 ± 1.1 µM
sensitivity, dose–response proliferation assay (A253): more resistant
compound remaining with dithiothreitol (DTT) ([2]; 5-fold excess DTT): 100%
compound remaining with glutathione (GSH) ([2]; 5-fold excess GSH): 100%
PAMPA permeability in words (PAMPA permeability): good permeability
growth inhibition potency [3]: low micromolar potency
Hepatic Microsome Stability percent remaining [4]: almost completely metabolized
Aqueous stability in PBS and pION buffer (Aqueous solubility): 8.7–9.7 μM
effect on Chop-null MEF cells [5]: unaffected
IV dose cleared from circulation within [6]: ≤ 30 min
sensitivity, dose–response proliferation assay (H460/T800): more resistant

CC1(C)CCN(S(=O)(=O)c2ccc(NC(=O)c3ccc(C(F)(F)F)o3)cc2)CC1 [Compound 30]
UPR CHOP AC50 ± SEM (CHOP): loss of activity
